# Test results from article PMC5080441, “A direct-sensing galactose chemoreceptor recently evolved in invasive strains of Campylobacter jejuni” (Nature Communications, 2016).
# Target: Tlp11 (CcrG, Campylobacter ChemoReceptor for Galactose)
# Test: SPR (Biacore); STD-NMR
# Assay type: binding, Campylobacter jejuni
smiles,measurement,value
OC[C@H]1OC(O)[C@H](O)[C@@H](O)[C@H]1O (stereo partly shown) [galactose],Kd,17 µM
